What was measured:
[1] = tested on: Monochoria vaginalis, Presl.; assay: Preemergence weed control under flooded paddy conditions, MOOVA (Monochoria); assay type: in vivo; details: flooded paddy; on herbicidal effect rating, MOOVA: meaning of each grade not given here
[2] = tested on: Echinochloa oryzoides (Ard.) Fritsch.; assay: Preemergence weed control under flooded paddy conditions, ECHORC (Watergrass (Calif.)); assay type: in vivo; details: flooded paddy; on herbicidal effect rating, ECHORC: meaning of each grade not given here
[3] = tested on: Oryza sativa, (L.) Tebonnet; assay: Rice tolerance to post-transplant applications under flooded paddy conditions (Example 187), ORYSAT (Rice, Tebonnet); on herbicidal effect rating ORYSAT: meaning of each grade not given here
[4] = tested on: Sagittaria pygmaea, L.; assay: Preemergence weed control under flooded paddy conditions, SAGPY (Arrowhead (Pygmaea)); assay type: in vivo; details: flooded paddy; on herbicidal effect rating, SAGPY: meaning of each grade not given here
[5] = tested on: Cyperus serotinus, Rottb.; assay: Preemergence weed control under flooded paddy conditions, CYPSE (Flatsedge); assay type: in vivo; on herbicidal effect rating, CYPSE: meaning of each grade not given here
[6] = tested on: Cyperus iria; assay: Preemergence weed control under flooded paddy conditions, CYPIR (Rice Flatsedge); assay type: in vivo; details: flooded paddy; on herbicidal effect rating, CYPIR: meaning of each grade not given here
[7] = Rate 0.0313 kg/ha, preemergence, rated three to four weeks after treatment
[8] = Rate 0.0625 kg/ha, preemergence, rated three to four weeks after treatment
[9] = Rate 0.1250 kg/ha, preemergence, rated three to four weeks after treatment
[10] = Rate 0.2500 kg/ha, preemergence, rated three to four weeks after treatment
[11] = Rate 0.1250 kg/ha, rated three to four weeks after treatment
[12] = Rate 0.2500 kg/ha, rated three to four weeks after treatment
[13] = Rate 0.0320 kg/ha, preemergence weeds, rated three to four weeks after treatment
[14] = Rate 0.0620 kg/ha, preemergence weeds, rated three to four weeks after treatment
[15] = Rate 0.1250 kg/ha, preemergence weeds, rated three to four weeks after treatment
[16] = Rate 0.2500 kg/ha, preemergence weeds, rated three to four weeks after treatment
[17] = 0.0313 kg/ha, preemergence, rated three to four weeks after treatment
[18] = 0.0625 kg/ha, preemergence, rated three to four weeks after treatment
[19] = 0.1250 kg/ha, preemergence, rated three to four weeks after treatment
[20] = 0.2500 kg/ha, preemergence, rated three to four weeks after treatment
[21] = Rate 0.0320 kg/ha, preemergence, rated 3-4 weeks after treatment
[22] = Rate 0.0620 kg/ha, preemergence, rated 3-4 weeks after treatment
[23] = Rate 0.1250 kg/ha, preemergence, rated 3-4 weeks after treatment
[24] = Rate 0.2500 kg/ha, preemergence, rated 3-4 weeks after treatment
[25] = Rate 0.5000 kg/ha, preemergence, rated 3-4 weeks after treatment

For `C=CCCOCc1nsc2ccc(-n3c(=O)cc(C(F)(F)F)n(C)c3=O)cc12` [Example 223, 3-{3-[(3-Butenyloxy)methyl]-1,2-benzisothiazol-5-yl}-1-methyl-6-(trifluoromethyl)-2,4(1H,3H)-pyrimidinedione], the “MOOVA herbicidal effect rating” value [1, 7] was 9.0, the “MOOVA herbicidal effect rating” value [1, 8] was 9.0 and the “MOOVA herbicidal effect rating” value [1, 9] was 9.0. The “MOOVA herbicidal effect rating” value [1, 10] was 9.0, the “ECHORC herbicidal effect rating” value [2, 7] was 6.0 and the “ECHORC herbicidal effect rating” value [2, 8] was 6.0. The “ECHORC herbicidal effect rating” value [2, 9] was 8.0, the “ECHORC herbicidal effect rating” value [2, 10] was 9.0 and the “ORYSAT herbicidal effect rating” value ([3]; Rate 0.0313 kg/ha, rated three to four weeks after treatment) was 7.0. For the same compound, the “ORYSAT herbicidal effect rating” value ([3]; Rate 0.0625 kg/ha, rated three to four weeks after treatment) was 8.0, the “ORYSAT herbicidal effect rating” value [3, 11] was 8.0 and the “ORYSAT herbicidal effect rating” value [3, 12] was 9.0. The “SAGPY herbicidal effect rating” value [4, 7] was 0.0, the “SAGPY herbicidal effect rating” value [4, 8] was 2.0 and the “SAGPY herbicidal effect rating” value [4, 9] was 6.0. For the same compound, the “SAGPY herbicidal effect rating” value [4, 10] was 9.0, the “CYPSE herbicidal effect rating” value [5, 7] was 0.0 and the “CYPSE herbicidal effect rating” value [5, 8] was 4.0. The “CYPSE herbicidal effect rating” value [5, 9] was 6.0, the “CYPSE herbicidal effect rating” value [5, 10] was 8.0 and the “CYPIR herbicidal effect rating” value [6, 7] was 4.0. For the same compound, the “CYPIR herbicidal effect rating” value [6, 8] was 7.0, the “CYPIR herbicidal effect rating” value [6, 9] was 7.0 and the “CYPIR herbicidal effect rating” value [6, 10] was 9.0.

For `Cn1c(C(F)(F)F)cc(=O)n(-c2ccc3snc(CN=C=S)c3c2)c1=O` [Example 311, Isothiocyanic acid, {5-[3,6-dihydro-3-methyl-2,6-dioxo-4-(trifluoromethyl)-1(2H)-pyrimidinyl]-1,2-benzisothiazol-3-yl}methyl ester], the “herbicidal effect rating, MOOVA” value [1, 13] was 0.0, the “herbicidal effect rating, MOOVA” value [1, 14] was 9.0 and the “herbicidal effect rating, MOOVA” value [1, 15] was 9.0. For the same compound, the “herbicidal effect rating, MOOVA” value [1, 16] was 9.0, the “herbicidal effect rating, ECHORC” value [2, 13] was 0.0 and the “herbicidal effect rating, ECHORC” value [2, 14] was 0.0. The “herbicidal effect rating, ECHORC” value [2, 15] was 0.0, the “herbicidal effect rating, ECHORC” value [2, 16] was 0.0 and the “herbicidal effect rating ORYSAT” value ([3]; Rate 0.0320 kg/ha, rated three to four weeks after treatment) was 0.0. The “herbicidal effect rating ORYSAT” value ([3]; Rate 0.0620 kg/ha, rated three to four weeks after treatment) was 0.0, the “herbicidal effect rating ORYSAT” value [3, 11] was 2.0 and the “herbicidal effect rating ORYSAT” value [3, 12] was 2.0. The “herbicidal effect rating, SAGPY” value [4, 13] was 0.0, the “herbicidal effect rating, SAGPY” value [4, 14] was 0.0 and the “herbicidal effect rating, SAGPY” value [4, 15] was 0.0. For the same compound, the “herbicidal effect rating, SAGPY” value [4, 16] was 0.0, the “herbicidal effect rating, CYPSE” value [5, 13] was 0.0 and the “herbicidal effect rating, CYPSE” value [5, 14] was 0.0. The “herbicidal effect rating, CYPSE” value [5, 15] was 0.0, the “herbicidal effect rating, CYPSE” value [5, 16] was 0.0 and the “herbicidal effect rating, CYPIR” value [6, 13] was 0.0. For the same compound, the “herbicidal effect rating, CYPIR” value [6, 14] was 9.0, the “herbicidal effect rating, CYPIR” value [6, 15] was 9.0 and the “herbicidal effect rating, CYPIR” value [6, 16] was 9.0.

In the case of `COc1cc(C)c(C)c(C)c1-c1nsc2ccc(-n3c(=O)cc(C(F)(F)F)n(C)c3=O)cc12` [Example 34, 3-[3-(6-Methoxy-2,3,4-trimethylphenyl)-1,2-benzisothiazol-5-yl]-1-methyl-6-(trifluoromethyl)-2,4(1H,3H)-pyrimidinedione], the “herbicidal effect rating, MOOVA” value [1, 17] is reported as 0.0, the “herbicidal effect rating, MOOVA” value [1, 18] is reported as 0.0 and the “herbicidal effect rating, MOOVA” value [1, 19] is reported as 0.0. For the same compound, the “herbicidal effect rating, MOOVA” value [1, 20] was 0.0, the “herbicidal effect rating, ECHORC” value [2, 17] was 2.0 and the “herbicidal effect rating, ECHORC” value [2, 18] was 2.5. The “herbicidal effect rating, ECHORC” value [2, 19] was 3.5, the “herbicidal effect rating, ECHORC” value [2, 20] was 4.5 and the “herbicidal effect rating, ORYSAT (rice tolerance)” value (“herbicidal effect rating, ORYSAT” for short) ([3]; 0.0313 kg/ha, rated three to four weeks after treatment) was 0.0. For the same compound, the “herbicidal effect rating, ORYSAT” value ([3]; 0.0625 kg/ha, rated three to four weeks after treatment) was 0.0, the “herbicidal effect rating, ORYSAT” value ([3]; 0.1250 kg/ha, rated three to four weeks after treatment) was 0.0 and the “herbicidal effect rating, ORYSAT” value ([3]; 0.2500 kg/ha, rated three to four weeks after treatment) was 0.0. The “herbicidal effect rating, SAGPY” value [4, 17] was 0.0, the “herbicidal effect rating, SAGPY” value [4, 18] was 0.0 and the “herbicidal effect rating, SAGPY” value [4, 19] was 0.0. For the same compound, the “herbicidal effect rating, SAGPY” value [4, 20] was 0.0, the “herbicidal effect rating, CYPSE” value [5, 17] was 0.0 and the “herbicidal effect rating, CYPSE” value [5, 18] was 0.0. The “herbicidal effect rating, CYPSE” value [5, 19] was 0.0, the “herbicidal effect rating, CYPSE” value [5, 20] was 0.0 and the “herbicidal effect rating, CYPIR” value [6, 17] was 0.0. The “herbicidal effect rating, CYPIR” value [6, 18] was 0.0, the “herbicidal effect rating, CYPIR” value [6, 19] was 0.0 and the “herbicidal effect rating, CYPIR” value [6, 20] was 0.0.

With `Cn1c(C(F)(F)F)cc(=O)n(-c2ccc3snc(-c4ccccc4OCC(=O)C(C)(C)C)c3c2)c1=O` [Example 549, 2,4(1H,3H)-Pyrimidinedione, 3-{3-[o-(3,3-dimethyl-2-oxobutoxy)phenyl)-1,2-benzisothiazol-5-yl}-1-methyl-6-(trifluoromethyl)-] the “herbicidal effect rating, MOOVA” value [1, 21] was 9.0, the “herbicidal effect rating, MOOVA” value [1, 22] was 9.0 and the “herbicidal effect rating, MOOVA” value [1, 23] was 9.0. For the same compound, the “herbicidal effect rating, MOOVA” value [1, 24] was 9.0, the “herbicidal effect rating, MOOVA” value [1, 25] was 9.0 and the “herbicidal effect rating, ECHORC” value [2, 21] was 3.0. The “herbicidal effect rating, ECHORC” value [2, 22] was 3.6, the “herbicidal effect rating, ECHORC” value [2, 23] was 5.1 and the “herbicidal effect rating, ECHORC” value [2, 24] was 9.0. The “herbicidal effect rating, ECHORC” value [2, 25] was 9.0, the “herbicidal effect rating ORYSAT” value ([3]; Rate 0.0320 kg/ha, rated 3-4 weeks after treatment) was 4.0 and the “herbicidal effect rating ORYSAT” value ([3]; Rate 0.0620 kg/ha, rated 3-4 weeks after treatment) was 4.0. The “herbicidal effect rating ORYSAT” value ([3]; Rate 0.1250 kg/ha, rated 3-4 weeks after treatment) was 4.0, the “herbicidal effect rating ORYSAT” value ([3]; Rate 0.2500 kg/ha, rated 3-4 weeks after treatment) was 4.0 and the “herbicidal effect rating ORYSAT” value ([3]; Rate 0.5000 kg/ha, rated 3-4 weeks after treatment) was 2.0. The “herbicidal effect rating, SAGPY” value [4, 21] was 0.0, the “herbicidal effect rating, SAGPY” value [4, 22] was 0.0 and the “herbicidal effect rating, SAGPY” value [4, 23] was 4.0. For the same compound, the “herbicidal effect rating, SAGPY” value [4, 24] was 4.0, the “herbicidal effect rating, SAGPY” value [4, 25] was 0.0 and the “herbicidal effect rating, CYPSE” value [5, 21] was 0.0. For the same compound, the “herbicidal effect rating, CYPSE” value [5, 22] was 0.0, the “herbicidal effect rating, CYPSE” value [5, 23] was 2.0 and the “herbicidal effect rating, CYPSE” value [5, 24] was 9.0. The “herbicidal effect rating, CYPSE” value [5, 25] was 9.0, the “herbicidal effect rating, CYPIR” value [6, 21] was 7.0 and the “herbicidal effect rating, CYPIR” value [6, 22] was 9.0. For the same compound, the “herbicidal effect rating, CYPIR” value [6, 23] was 9.0, the “herbicidal effect rating, CYPIR” value [6, 24] was 9.0 and the “herbicidal effect rating, CYPIR” value [6, 25] was 9.0.

Source: EP0908457B1, “3-(1,2-benzisothiazol- and isoxazol-5-Y1)-2,4(1H,3H)-pyrimidinedione or thione and 3-(1,2-benzisothiazol- and isoxazol-5-y1)-4(3H)-pyrimidinone or thione herbicidal agents” (BASF AKTIENGESELLSCHAFT, priority 1997, dated 1999)
